Laboratory results: paper PMC8237267 (Journal of Medicinal Chemistry, 2021)

Columns and labels:
MRC-9 = test: Cytotoxicity assay (Cell Titer-Blue, 72 h); type: cell-based; conditions: MRC-9 (healthy fibroblasts); read-out: In cellulo IC50 MRC-9
[1] = Stability in mouse plasma; type: in vitro ADME; conditions: read-out: Plasma stability t1/2
Method: The plasma stability of the compounds was evaluated in mouse plasma provided from Sigma-Aldrich, Oakville, Canada. The main stock solutions of the compounds were prepared at 10 mM in DMSO, which was diluted to 100 μM in 50% acetonitrile (ACN)/50% water. Aliquots of 356.5 μL of plasma proteins were placed in a heating block and allowed to equilibrate at 37 °C for 5 min. Then, 3.5 μL of 100 μM compound solutions were added to each vial (final concentration of 1 μM). Three quality control (QC) samples at 100, 500, and 1000 nM were prepared in 0.5% ACN. The vial contents were transferred in 50 μL aliquots at time points of 0.5, 5, 10, 20, 30, and 60 mi to a 96-well autosampler plate containing 150 μL of protein precipitation solution. Ice-cold ACN containing internals standards (100 nM glyburide) were used as the protein precipitation solution. After centrifugation at 4 °C, 5500 rpm for 15 min, the supernatant was diluted in MQ water, and injected into the LC/MS/MS for quantitative analysis.
The mobile phase consisted of (A) 0.1% (v/v) formic acid in Milli-Q water; (B) 0.1% (v/v) formic acid in acetonitrile. […] Peak areas were determined from extracted ion chromatograms. The in vitro half-life (t1/2) of parent compounds were determined by regression analysis of the percent parent disappearance vs time curve.

HDAC6 = molecular target: T1, HDAC6 (Homo sapiens, UniProt Q9UBN7); test: Time-dependent IC50 assay with preincubation (0-6 h); type: biochemical; conditions: 6 h time-dependent assay
T1 sequence (Q9UBN7 1-1215): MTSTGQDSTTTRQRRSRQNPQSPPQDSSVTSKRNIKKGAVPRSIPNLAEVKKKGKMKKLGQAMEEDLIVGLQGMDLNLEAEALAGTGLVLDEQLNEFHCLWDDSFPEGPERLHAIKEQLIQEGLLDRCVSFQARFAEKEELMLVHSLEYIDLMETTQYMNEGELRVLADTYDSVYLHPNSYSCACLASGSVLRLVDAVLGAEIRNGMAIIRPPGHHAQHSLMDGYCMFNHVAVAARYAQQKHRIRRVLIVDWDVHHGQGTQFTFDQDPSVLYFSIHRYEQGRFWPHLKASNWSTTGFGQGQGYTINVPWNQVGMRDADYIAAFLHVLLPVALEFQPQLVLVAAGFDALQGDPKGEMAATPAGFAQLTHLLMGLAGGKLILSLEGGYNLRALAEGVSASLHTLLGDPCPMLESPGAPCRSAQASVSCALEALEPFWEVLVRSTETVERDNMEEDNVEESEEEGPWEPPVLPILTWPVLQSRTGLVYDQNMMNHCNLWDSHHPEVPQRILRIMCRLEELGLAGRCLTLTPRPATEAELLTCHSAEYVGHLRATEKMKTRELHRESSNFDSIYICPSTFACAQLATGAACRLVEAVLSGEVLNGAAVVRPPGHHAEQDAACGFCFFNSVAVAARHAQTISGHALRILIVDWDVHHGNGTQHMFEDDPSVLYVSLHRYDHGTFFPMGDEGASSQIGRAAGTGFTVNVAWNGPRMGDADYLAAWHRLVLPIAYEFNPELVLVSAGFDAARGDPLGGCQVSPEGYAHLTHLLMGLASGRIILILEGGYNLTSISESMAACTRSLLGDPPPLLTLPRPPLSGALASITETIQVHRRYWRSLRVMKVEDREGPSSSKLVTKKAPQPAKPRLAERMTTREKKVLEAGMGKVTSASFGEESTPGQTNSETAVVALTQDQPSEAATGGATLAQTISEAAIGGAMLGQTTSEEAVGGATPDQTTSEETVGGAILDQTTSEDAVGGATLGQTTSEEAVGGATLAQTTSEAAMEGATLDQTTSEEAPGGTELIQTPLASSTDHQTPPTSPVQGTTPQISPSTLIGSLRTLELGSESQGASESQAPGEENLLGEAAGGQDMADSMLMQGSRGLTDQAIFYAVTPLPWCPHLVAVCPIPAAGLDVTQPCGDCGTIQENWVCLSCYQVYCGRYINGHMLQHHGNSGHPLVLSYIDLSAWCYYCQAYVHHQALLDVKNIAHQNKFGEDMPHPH
Method: The binding kinetics profile of KT-531 was also investigated by determining the association (kon)/dissociation (koff) rates as well as residence time parameters. The in vitro residence time (1/kobs) for the KT-531–HDAC6 complex was determined to be 23.18 min, as compared to 10.72 min for 1.

[2] = tested on: cleavage of PARP-1 and Caspase-3; test: Western blot of apoptosis markers in MV4-11 cells; type: cell-based; conditions: MV4-11, 6 h, 0.5 μM
Method: Briefly, MV4-11 cells were incubated with inhibitors prior to cell lysis with radioimmunoprecipitation assay (RIPA) buffer (20 mM Tris pH 7.4, 150 mM NaCl, 0.5% deoxycholate, 1% Triton X-100, and 0.1% sodium dodecyl sulfate (SDS)). Total protein content was determined through a BCA assay (ThermoFisher), resolved via a 4–20% polyacrylamide SDS gel, and transferred to a nitrocellulose membrane (Bio-Rad). The membranes were blocked with a 5% solution (skimmed milk powder in PBS-T). This was followed by incubation at 4 °C (overnight) with the following antibodies: acetylated α-tubulin mouse monoclonal (MABT868, EMD Millipore), acetylated histone H3 (Ac-Lys18, 07–354, Sigma), PARP-1 (ab227244, Abcam), apoptosis Western blot cocktail (136812, Abcam), cleaved PARP-1 (ab32561, Abcam), and HSC70 (sc-7298, Santa Cruz). Following overnight incubation, horseradish peroxidase (HRP)-conjugated goat anti-mouse IgG secondary antibody (7076, Cell Signaling) or HRP-linked anti-rabbit IgG secondary antibody (7074, Cell Signaling) was applied to the membrane in a 1:5000 dilution. The bands were visualized using clarity Western ECL substrate luminal/enhancer solution and peroxide solution. Western blotting analysis was carried out using Image lab software (Bio-Rad).[47],[50],[70]

O=C(NO)c1ccc(CN(C2CC2)S(=O)(=O)c2cc(F)c(F)c(F)c2F)cc1 [Compound 14, 4-(((N-Cyclopropyl-2,3,4,5-tetrafluorophenyl)sulfonamido)methyl)-N-hydroxybenzamide]
IC50 (MRC-9): > 20 µM | half-life at 1 μM [1]: 41 min | reversibility of binding (IC50 over preincubation time) (HDAC6): unchanged IC50 values | cleavage of PARP-1 and Caspase-3 [2]: Cleavage of PARP-1 and Caspase-3
